# Test results taken from patent US11311522B1 (Cavion, Inc., priority 2018, dated 2022).
# System: patients with essential tremor
# Experiment: T-CALM: TETRAS performance subscale (TETRAS-PS)
# Conditions: for >5 to 10 point worsening / >10 point worsening: TETRAS-PS
# [1] = Day 28, independent video raters
# [2] = Independent Video Raters, subgroup Baseline TETRAS-PS Severity <=Median, N=22
# [3] = Independent Video Raters, subgroup Baseline TETRAS-PS Severity > Median, N=16
# [4] = Independent Video Raters, subgroup No Beta-blocker Use at Day 1, N=20
# [5] = Independent Video Raters, subgroup No Concurrent Tremor Medication at Day 1, N=14
# [6] = Independent Video Raters, subgroup Using Beta-blocker at Day 1, N=18
# [7] = Independent Video Raters, subgroup Using Concurrent Tremor Medication at Day 1, N=24
# [8] = Investigator Rated, subgroup Baseline TETRAS-PS Severity <=Median, N=22
# [9] = Investigator Rated, subgroup Baseline TETRAS-PS Severity > Median, N=15
# [10] = Investigator Rated, subgroup No Beta-blocker Use at Day 1, N=19
# [11] = Investigator Rated, subgroup No Concurrent Tremor Medication at Day 1, N=14
# [12] = Investigator Rated, subgroup Using Beta-blocker at Day 1, N=18
# [13] = Investigator Rated, subgroup Using Concurrent Tremor Medication at Day 1, N=23
compound,measurement,setting,value
CC(C)c1ccc(CC(=O)N[C@H](C)c2ccc(OCC(F)(F)F)cn2)cc1 [CX-8998],"Change from baseline in TETRAS-PS rated by physician, LS mean",Day 15 (8 mg BID),−3.1
same,"Change from baseline in TETRAS-PS rated by physician, LS mean",Day 28 (10 mg BID),−4.6
same,TETRAS-PS LS mean difference from placebo (95% CI),[1],"0.5 (−1.5, 2.5)"
same,"TETRAS-PS total score, Mean (SD)",[1],21.1 (6.71)
same,"TETRAS-PS total score, Median",[1],20.0
same,TETRAS-PS LS mean difference from placebo (95% CI),"Day 28, investigator rated","−2.0 (−4.0, 0.0)"
same,"TETRAS-PS total score, Median","Day 28, investigator rated",22.5
same,"TETRAS-PS Total Score change from baseline to Day 28, LS mean difference from placebo (95% CI)","Independent Video Raters, subgroup Baseline TETRAS-PS Severity <=Median","1.2 (−1.1, 3.4)"
same,"TETRAS-PS Total Score change from baseline to Day 28, LS mean (SE)",[2],−0.6 (0.82)
same,"TETRAS-PS Total Score change from baseline to Day 28, Median (minimum, maximum)",[2],"0 (−9.5, 7.0)"
same,"TETRAS-PS Total Score change from baseline to Day 28, Mean (SD)","Independent Video Raters, subgroup Baseline TETRAS-PS Severity <=Median, N=22, titrated up to 10 mg BID",−0.1 (3.98)
same,"TETRAS-PS Total Score change from baseline to Day 28, LS mean difference from placebo (95% CI)","Independent Video Raters, subgroup Baseline TETRAS-PS Severity > Median","−1.3 (−4.8, 2.3)"
same,"TETRAS-PS Total Score change from baseline to Day 28, LS mean (SE)",[3],−3.5 (1.47)
same,"TETRAS-PS Total Score change from baseline to Day 28, Mean (SD)",[3],−3.6 (4.14)
same,"TETRAS-PS Total Score change from baseline to Day 28, Median (minimum, maximum)",[3],"−3.0 (−11, 2.5)"
same,"TETRAS-PS Total Score change from baseline to Day 28, LS mean difference from placebo (95% CI)","Independent Video Raters, subgroup No Beta-blocker Use at Day 1","−1.2 (−4.3, 1.8)"
same,"TETRAS-PS Total Score change from baseline to Day 28, LS mean (SE)",[4],−1.3 (1.10)
same,"TETRAS-PS Total Score change from baseline to Day 28, Mean (SD)",[4],−1.6 (4.99)
same,"TETRAS-PS Total Score change from baseline to Day 28, Median (minimum, maximum)",[4],"−2.0 (−11, 7.0)"
same,"TETRAS-PS Total Score change from baseline to Day 28, LS mean difference from placebo (95% CI)","Independent Video Raters, subgroup No Concurrent Tremor Medication at Day 1","−2.0 (−5.8, 1.8)"
same,"TETRAS-PS Total Score change from baseline to Day 28, LS mean (SE)",[5],−4.3 (2.05)
same,"TETRAS-PS Total Score change from baseline to Day 28, Median (minimum, maximum)",[5],"−3.3 (−11, 7.0)"
same,"TETRAS-PS Total Score change from baseline to Day 28, LS mean difference from placebo (95% CI)","Independent Video Raters, subgroup Using Beta-blocker at Day 1","1.4 (−1.4, 4.3)"
same,"TETRAS-PS Total Score change from baseline to Day 28, LS mean (SE)",[6],−2.5 (1.36)
same,"TETRAS-PS Total Score change from baseline to Day 28, Mean (SD)",[6],−1.5 (3.68)
same,"TETRAS-PS Total Score change from baseline to Day 28, Median (minimum, maximum)",[6],"−1.3 (−9.5, 4.0)"
same,"TETRAS-PS Total Score change from baseline to Day 28, LS mean difference from placebo (95% CI)","Independent Video Raters, subgroup Using Concurrent Tremor Medication at Day 1","1.8 (−0.7, 4.3)"
same,"TETRAS-PS Total Score change from baseline to Day 28, LS mean (SE)",[7],−1.6 (1.14)
same,"TETRAS-PS Total Score change from baseline to Day 28, Mean (SD)",[7],−1.1 (3.71)
same,"TETRAS-PS Total Score change from baseline to Day 28, Median (minimum, maximum)",[7],"−1.3 (−9.5, 5.5)"
same,"TETRAS-PS Total Score change from baseline to Day 28, LS mean difference from placebo (95% CI)","Investigator Rated, subgroup Baseline TETRAS-PS Severity <=Median","−1.2 (−3.1, 0.6)"
same,"TETRAS-PS Total Score change from baseline to Day 28, LS mean (SE)",[8],−3.8 (0.67)
same,"TETRAS-PS Total Score change from baseline to Day 28, Mean (SD)",[8],−3.4 (3.74)
same,"TETRAS-PS Total Score change from baseline to Day 28, Median (minimum, maximum)",[8],"−3.0 (−13.5, 1.0)"
same,"TETRAS-PS Total Score change from baseline to Day 28, LS mean difference from placebo (95% CI)","Investigator Rated, subgroup Baseline TETRAS-PS Severity > Median","−3.5 (−7.4, 0.4)"
same,"TETRAS-PS Total Score change from baseline to Day 28, LS mean (SE)",[9],−5.6 (1.60)
same,"TETRAS-PS Total Score change from baseline to Day 28, Mean (SD)",[9],−5.8 (4.48)
same,"TETRAS-PS Total Score change from baseline to Day 28, Median (minimum, maximum)",[9],"−6.0 (−13, 4.5)"
same,"TETRAS-PS Total Score change from baseline to Day 28, LS mean difference from placebo (95% CI)","Investigator Rated, subgroup No Beta-blocker Use at Day 1","−4.3 (−7.0, −1.7)"
same,"TETRAS-PS Total Score change from baseline to Day 28, LS mean (SE)",[10],−5.6 (0.97)
same,"TETRAS-PS Total Score change from baseline to Day 28, Mean (SD)",[10],−4.5 (3.89)
same,"TETRAS-PS Total Score change from baseline to Day 28, Median (minimum, maximum)",[10],"−4.0 (−12.4, 1.0)"
same,"TETRAS-PS Total Score change from baseline to Day 28, LS mean difference from placebo (95% CI)","Investigator Rated, subgroup No Concurrent Tremor Medication at Day 1","−4.4 (−7.4, −1.3)"
same,"TETRAS-PS Total Score change from baseline to Day 28, LS mean (SE)",[11],−6.2 (1.60)
same,"TETRAS-PS Total Score change from baseline to Day 28, Mean (SD)",[11],−5.0 (3.97)
same,"TETRAS-PS Total Score change from baseline to Day 28, Median (minimum, maximum)",[11],"−4.5 (−12.5, 1.0)"
same,"TETRAS-PS Total Score change from baseline to Day 28, LS mean difference from placebo (95% CI)","Investigator Rated, subgroup Using Beta-blocker at Day 1","−0.3 (−3.6, 3.0)"
same,"TETRAS-PS Total Score change from baseline to Day 28, LS mean (SE)",[12],−3.6 (1.56)
same,"TETRAS-PS Total Score change from baseline to Day 28, Mean (SD)",[12],−4.2 (4.55)
same,"TETRAS-PS Total Score change from baseline to Day 28, Median (minimum, maximum)",[12],"−4.0 (−13.5, 4.5)"
same,"TETRAS-PS Total Score change from baseline to Day 28, LS mean difference from placebo (95% CI)","Investigator Rated, subgroup Using Concurrent Tremor Medication at Day 1","−0.5 (−3.2, 2.3)"
same,"TETRAS-PS Total Score change from baseline to Day 28, LS mean (SE)",[13],−3.5 (1.29)
same,"TETRAS-PS Total Score change from baseline to Day 28, Mean (SD)",[13],−3.9 (4.31)
same,"TETRAS-PS Total Score change from baseline to Day 28, Median (minimum, maximum)",[13],"−3.5 (−13.5, 4.5)"
same,>5 to 10 point worsening,Day 15,0 n (%)
same,>10 point worsening,Day 15,0 n (%)
same,>5 to 10 point worsening,Day 28,0 n (%)
same,>10 point worsening,Day 28,0 n (%)
same,"TETRAS-PS change from baseline to Day 28, Mean (SD)",independent video raters,−1.6 (4.36)
same,"TETRAS-PS change from baseline to Day 28, Median",independent video raters,−1.5
same,"TETRAS-PS change from baseline to Day 28, Mean (SD)",investigator rated,−4.4 (4.16)
same,"TETRAS-PS change from baseline to Day 28, Median",investigator rated,−4.0
